Measured values as given in patent US20050080076A1 (Xanodyne Pharmacal, Inc., priority 2003, published 2005).

Assays:
[1] = target: Histamine H1 (Homo sapiens, UniProt P35367); assay: Receptor binding, Histamine H1; conditions: for Ki: Histamine H1; for Relative Affinity: Histamine
Description: (§1) Receptor-ligand binding studies were performed as known to one skilled in the art. Compounds evaluated were LMP, the parent compound, the NDM LMP metabolite of LMP, and the sulfoxide metabolite of LMP. These studies verified receptor binding and affinity by the parent compound, as well as identified other potential receptors for the parent compound and its metabolites, and identified and verified receptors and receptor affinity for the metabolites.
(§2) Dopamine receptor affinity included binding to D1, D2, D3, D4, and D5 receptors. Serotonin receptor affinity included binding to 5-HT1A, 5-HT2A, 5-HT2B, 5-HT2, 5-HT5A, 5-HT6, and 5-HT7 receptors. Alpha adrenergic receptor affinity included binding to α1A, α1B, α1C, α2A, α2B, and α2C receptors. Muscarinic receptor affinity included binding to M1, M2, M3, M4, and M5 receptors. Binding to the histamine H1 receptor, the calcium ion channel receptor, and the sodium ion channel receptor were also evaluated. In each of the tables, the following abbreviations are used: LMP indicates the parent compound levomepromazine. NDM LMP indicates the N-desmethyl (N-desmethyl) metabolite. Sulfoxide indicates the sulfoxide metabolite. […] Ki (the inhibition constants of binding) indicate binding affinity.

[2] = target: T1, Dopamine D4.2 (Homo sapiens, UniProt P21917, DEL271-302); assay: Receptor binding, Dopamine D4.2
T1 sequence (P21917 with tags, fused parts or gaps DEL271-302): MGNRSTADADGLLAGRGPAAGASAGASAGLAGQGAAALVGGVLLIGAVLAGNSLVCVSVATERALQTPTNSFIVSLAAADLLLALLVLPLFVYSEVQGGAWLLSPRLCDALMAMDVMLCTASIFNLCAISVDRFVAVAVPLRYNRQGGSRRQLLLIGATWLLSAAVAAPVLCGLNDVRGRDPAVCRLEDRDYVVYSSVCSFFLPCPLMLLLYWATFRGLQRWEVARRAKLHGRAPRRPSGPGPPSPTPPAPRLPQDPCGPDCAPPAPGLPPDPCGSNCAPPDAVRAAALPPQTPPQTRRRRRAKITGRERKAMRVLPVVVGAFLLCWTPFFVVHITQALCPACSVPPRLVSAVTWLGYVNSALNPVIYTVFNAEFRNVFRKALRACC
Description: as §1, §2

[3] = target: Serotonin 5-HT2A (Homo sapiens, UniProt P28223); assay: Receptor binding, Serotonin 5-HT2A
Description: as §1, §2

[4] = target: Serotonin 5-HT6 (Homo sapiens, UniProt P50406); assay: Receptor binding, Serotonin 5-HT6
Description: as §1, §2

[5] = target: T2, Serotonin 5-HT1A (Homo sapiens, UniProt P08908); assay: Receptor binding, Serotonin 5-HT1A
T2 sequence (P08908 1-422): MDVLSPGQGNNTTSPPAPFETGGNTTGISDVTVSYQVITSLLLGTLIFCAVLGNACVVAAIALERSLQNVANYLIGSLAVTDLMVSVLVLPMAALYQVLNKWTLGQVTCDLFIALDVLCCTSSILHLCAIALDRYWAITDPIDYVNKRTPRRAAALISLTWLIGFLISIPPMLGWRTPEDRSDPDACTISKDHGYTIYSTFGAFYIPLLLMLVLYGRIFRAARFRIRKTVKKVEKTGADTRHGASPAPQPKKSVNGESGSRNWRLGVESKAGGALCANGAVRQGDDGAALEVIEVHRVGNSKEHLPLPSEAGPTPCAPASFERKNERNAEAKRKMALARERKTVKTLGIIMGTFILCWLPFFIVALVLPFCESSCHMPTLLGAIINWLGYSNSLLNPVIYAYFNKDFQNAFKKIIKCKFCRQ
Description: as §1, §2

[6] = target: Calcium Channel; assay: Receptor binding, Calcium Channel
Description: as §1, §2

[7] = target: T3, Adrenergic α2C (Homo sapiens, UniProt P18825); assay: Receptor binding, Adrenergic α2C
T3 sequence (P18825 1-462): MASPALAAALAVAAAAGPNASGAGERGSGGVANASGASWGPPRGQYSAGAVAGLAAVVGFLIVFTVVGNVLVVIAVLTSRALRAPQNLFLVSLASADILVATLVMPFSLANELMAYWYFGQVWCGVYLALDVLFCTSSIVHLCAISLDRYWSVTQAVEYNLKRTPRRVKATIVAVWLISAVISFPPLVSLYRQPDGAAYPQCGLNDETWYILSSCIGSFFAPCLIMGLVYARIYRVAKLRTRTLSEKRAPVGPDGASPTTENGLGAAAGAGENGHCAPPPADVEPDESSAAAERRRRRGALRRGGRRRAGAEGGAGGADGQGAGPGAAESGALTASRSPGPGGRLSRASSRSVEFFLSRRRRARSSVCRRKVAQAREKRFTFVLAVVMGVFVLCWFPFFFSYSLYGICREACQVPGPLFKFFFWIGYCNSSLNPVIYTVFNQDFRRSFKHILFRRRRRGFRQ
Description: as §1, §2

[8] = target: T4, Muscarinic M4 (Homo sapiens, UniProt P08173); assay: Receptor binding, Muscarinic M4
T4 sequence (P08173 1-479): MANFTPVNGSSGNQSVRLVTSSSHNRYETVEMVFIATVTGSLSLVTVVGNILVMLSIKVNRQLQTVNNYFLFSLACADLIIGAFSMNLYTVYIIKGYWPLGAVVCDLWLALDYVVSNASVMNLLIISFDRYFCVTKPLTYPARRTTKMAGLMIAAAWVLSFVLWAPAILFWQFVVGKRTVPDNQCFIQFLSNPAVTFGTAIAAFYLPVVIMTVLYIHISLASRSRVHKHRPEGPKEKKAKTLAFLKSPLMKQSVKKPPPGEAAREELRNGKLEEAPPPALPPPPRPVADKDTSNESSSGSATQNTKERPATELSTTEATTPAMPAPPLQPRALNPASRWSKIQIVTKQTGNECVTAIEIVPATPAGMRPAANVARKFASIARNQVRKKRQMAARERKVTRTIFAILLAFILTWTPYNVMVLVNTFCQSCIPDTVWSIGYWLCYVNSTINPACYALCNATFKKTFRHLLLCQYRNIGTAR
Description: as §1, §2

[9] = target: Serotonin 5-HT2B (Homo sapiens, UniProt P41595); assay: Receptor binding, Serotonin 5-HT2B
Description: as §1, §2

[10] = target: Serotonin 5-HT5A (Homo sapiens, UniProt P47898); assay: Receptor binding, Serotonin 5-HT5A
Description: as §1, §2

Serotonin 5-HT2B, sequence (P41595 whole entry): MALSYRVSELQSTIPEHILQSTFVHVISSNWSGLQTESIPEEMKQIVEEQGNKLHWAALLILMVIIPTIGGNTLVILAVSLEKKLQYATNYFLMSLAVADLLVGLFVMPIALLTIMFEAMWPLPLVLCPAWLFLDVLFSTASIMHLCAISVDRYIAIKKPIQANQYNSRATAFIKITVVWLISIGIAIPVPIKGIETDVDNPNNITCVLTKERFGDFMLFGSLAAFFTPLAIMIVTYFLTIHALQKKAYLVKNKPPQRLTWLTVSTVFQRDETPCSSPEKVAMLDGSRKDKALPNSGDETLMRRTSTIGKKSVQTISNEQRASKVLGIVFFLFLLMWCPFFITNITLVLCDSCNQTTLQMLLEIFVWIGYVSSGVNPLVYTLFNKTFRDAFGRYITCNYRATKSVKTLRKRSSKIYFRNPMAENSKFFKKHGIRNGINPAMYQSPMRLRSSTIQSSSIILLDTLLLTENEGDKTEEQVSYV
Histamine H1, sequence (P35367 whole entry): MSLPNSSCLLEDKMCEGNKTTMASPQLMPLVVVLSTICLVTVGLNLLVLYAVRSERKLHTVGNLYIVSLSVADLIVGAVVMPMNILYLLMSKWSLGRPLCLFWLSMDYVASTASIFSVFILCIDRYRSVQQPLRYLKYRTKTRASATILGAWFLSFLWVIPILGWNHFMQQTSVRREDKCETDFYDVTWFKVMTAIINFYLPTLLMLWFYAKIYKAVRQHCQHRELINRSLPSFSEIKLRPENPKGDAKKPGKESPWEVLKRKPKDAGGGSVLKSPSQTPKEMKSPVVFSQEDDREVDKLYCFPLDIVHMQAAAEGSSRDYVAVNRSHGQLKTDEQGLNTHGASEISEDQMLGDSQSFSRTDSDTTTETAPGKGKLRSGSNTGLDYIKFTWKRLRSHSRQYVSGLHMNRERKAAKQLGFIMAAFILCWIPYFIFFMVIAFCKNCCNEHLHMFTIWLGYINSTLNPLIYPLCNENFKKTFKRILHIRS
Serotonin 5-HT2A, sequence (P28223 whole entry): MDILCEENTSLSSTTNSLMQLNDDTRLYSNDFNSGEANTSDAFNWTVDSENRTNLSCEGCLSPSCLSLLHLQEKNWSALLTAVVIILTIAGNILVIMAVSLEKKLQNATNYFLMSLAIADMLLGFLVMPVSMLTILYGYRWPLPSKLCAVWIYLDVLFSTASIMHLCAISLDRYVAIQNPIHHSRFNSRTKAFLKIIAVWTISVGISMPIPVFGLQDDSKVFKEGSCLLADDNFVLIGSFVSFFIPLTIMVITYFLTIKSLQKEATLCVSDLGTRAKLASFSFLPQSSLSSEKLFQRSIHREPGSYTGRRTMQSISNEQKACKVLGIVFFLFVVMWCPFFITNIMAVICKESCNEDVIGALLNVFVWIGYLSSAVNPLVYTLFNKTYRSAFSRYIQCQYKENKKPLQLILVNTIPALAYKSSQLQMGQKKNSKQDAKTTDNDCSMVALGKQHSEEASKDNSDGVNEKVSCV
Serotonin 5-HT6, sequence (P50406 whole entry): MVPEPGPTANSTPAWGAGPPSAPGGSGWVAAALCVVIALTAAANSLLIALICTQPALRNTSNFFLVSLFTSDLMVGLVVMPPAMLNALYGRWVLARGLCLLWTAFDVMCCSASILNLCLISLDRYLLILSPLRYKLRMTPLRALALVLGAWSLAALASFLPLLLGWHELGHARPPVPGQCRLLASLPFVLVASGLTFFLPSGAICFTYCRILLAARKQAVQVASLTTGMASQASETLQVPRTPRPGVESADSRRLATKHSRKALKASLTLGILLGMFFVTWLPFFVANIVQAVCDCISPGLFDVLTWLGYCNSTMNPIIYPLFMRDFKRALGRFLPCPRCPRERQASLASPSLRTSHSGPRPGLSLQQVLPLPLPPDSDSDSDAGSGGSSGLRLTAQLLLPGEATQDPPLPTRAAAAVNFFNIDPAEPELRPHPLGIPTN
Serotonin 5-HT5A, sequence (P47898 whole entry): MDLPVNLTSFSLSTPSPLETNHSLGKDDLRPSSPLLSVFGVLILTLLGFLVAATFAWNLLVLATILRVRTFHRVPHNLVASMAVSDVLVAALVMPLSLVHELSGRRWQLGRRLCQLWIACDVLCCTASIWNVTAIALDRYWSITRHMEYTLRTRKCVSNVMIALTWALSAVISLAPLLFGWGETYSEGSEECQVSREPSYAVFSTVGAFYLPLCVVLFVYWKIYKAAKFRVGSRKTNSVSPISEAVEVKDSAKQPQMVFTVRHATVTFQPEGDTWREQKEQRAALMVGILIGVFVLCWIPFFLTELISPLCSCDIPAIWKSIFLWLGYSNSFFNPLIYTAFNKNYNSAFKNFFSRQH

| Structure (SMILES) | Ki [1] [nM] | Ki [2] [nM] | Ki [3] [nM] | Ki [4] [nM] | Ki [5] [nM] | Ki [6] [nM] | Ki [7] [nM] | Ki [8] [nM] | Ki [9] [nM] | Ki [10] [nM] | Relative Affinity [1] | Relative Affinity [6] |
| --- | --- | --- | --- | --- | --- | --- | --- | --- | --- | --- | --- | --- |
| COc1ccc2c(c1)N(C[C@H](C)CN(C)C)c1ccccc1S2 [LMP, Levomepromazine] | 2 | 769 | < 4 | 82 | 827 | 407 | 77 | 34 | 19 | 136 |  |  |
| CNCC(C)CN1c2ccccc2Sc2ccc(OC)cc21 (stereo not drawn) [NDM LMP, R(+) 2-methoxy-10-2-methyl-3-monomethylaminopropyl phenothiazine] | 2.1 | 3110 | < 4 | 98 | 641 | 49 | 74 | 88 | 27 | 152 | LMP = NDM LMP = sulfoxide | NDM LMP > LMP > sulfoxide |
| COc1ccc2c(c1)N(C[C@H](C)CN(C)C)c1ccccc1[S+]2[O-] (stereo partly shown) [Sulfoxide, levomepromazine sulfoxide] | 6.1 | > 10000 | 410 | > 10000 | > 10000 | 9090 | > 10000 | 318 | > 10000 | > 10000 | LMP = NDM LMP = sulfoxide | NDM LMP > LMP > sulfoxide |
